Measurements published in the kinase profiling compilation of Christmann-Franck et al. (2016).
Values belong to the molecule of their own block, whether it stands above or below them.

Assays:
Experiment in all cases: radiometric filter-binding kinase assay, Kinase HotSpot
Details in all cases: compound 0.5 µM; ATP 10 µM
ABL1 (human) = ABL1 (human) (UniProt P00519)
ACVRL1 (human) = ACVRL1 (human) (UniProt P37023)
BRSK1 (human) = BRSK1 (human) (UniProt Q8TDC3)
BRSK2 (human) = BRSK2 (human) (UniProt Q8IWQ3)
CAMKK1 (human) = CAMKK1 (human) (UniProt Q8N5S9)
CDK2 CCNA2 (human) = CDK2 CCNA2 (human) (UniProt P24941+P20248)
CDK4 CCND3 (human) = CDK4 CCND3 (human) (UniProt P30281+P11802)
CDK9 CCNK (human) = CDK9 CCNK (human) (UniProt O75909+P50750)
CHEK2 (human) = CHEK2 (human) (UniProt O96017)
CLK3 (human) = CLK3 (human) (UniProt P49761)
CSF1R (human) = CSF1R (human) (UniProt P07333)
CSK (human) = CSK (human) (UniProt P41240)
CSNK1D (human) = CSNK1D (human) (UniProt P48730)
CSNK1E (human) = CSNK1E (human) (UniProt P49674)
CSNK2A2 (human) = CSNK2A2 (human) (UniProt P19784)
DCLK2 (human) = DCLK2 (human) (UniProt Q8N568)
EPHB3 (human) = EPHB3 (human) (UniProt P54753)
ERBB4 (human) = ERBB4 (human) (UniProt Q15303)
GSG2 (human) = GSG2 (human) (UniProt Q8TF76)
ITK (human) = ITK (human) (UniProt Q08881)
KIT (human) = KIT (human) (UniProt P10721)
MAP3K2 (human) = MAP3K2 (human) (UniProt Q9Y2U5)
MAP3K7 TAB1 (human) = MAP3K7 TAB1 (human) (UniProt O43318+Q15750)
MAP4K2 (human) = MAP4K2 (human) (UniProt Q12851)
MAPK1 (human) = MAPK1 (human) (UniProt P28482)
MARK3 (human) = MARK3 (human) (UniProt P27448)
MARK4 (human) = MARK4 (human) (UniProt Q96L34)
MST1R (human) = MST1R (human) (UniProt Q04912)
PIM3 (human) = PIM3 (human) (UniProt Q86V86)
PRKD3 (human) = PRKD3 (human) (UniProt O94806)
PTK2B (human) = PTK2B (human) (UniProt Q14289)
RAF1 (human) = RAF1 (human) (UniProt P04049)
ROCK2 (human) = ROCK2 (human) (UniProt O75116)
ROS1 (human) = ROS1 (human) (UniProt P08922)
STK39 (human) = STK39 (human) (UniProt Q9UEW8)
STK4 (human) = STK4 (human) (UniProt Q13043)
TGFBR1 (human) = TGFBR1 (human) (UniProt P36897)
TSSK1B (human) = TSSK1B (human) (UniProt Q9BXA7)
TTK (human) = TTK (human) (UniProt P33981)
TYRO3 (human) = TYRO3 (human) (UniProt Q06418)
ZAP70 (human) = ZAP70 (human) (UniProt P43403)
EGFR (human) = EGFR (human) (UniProt P00533)

Sequence of MAPK1 (human) (P28482 whole entry, looked up): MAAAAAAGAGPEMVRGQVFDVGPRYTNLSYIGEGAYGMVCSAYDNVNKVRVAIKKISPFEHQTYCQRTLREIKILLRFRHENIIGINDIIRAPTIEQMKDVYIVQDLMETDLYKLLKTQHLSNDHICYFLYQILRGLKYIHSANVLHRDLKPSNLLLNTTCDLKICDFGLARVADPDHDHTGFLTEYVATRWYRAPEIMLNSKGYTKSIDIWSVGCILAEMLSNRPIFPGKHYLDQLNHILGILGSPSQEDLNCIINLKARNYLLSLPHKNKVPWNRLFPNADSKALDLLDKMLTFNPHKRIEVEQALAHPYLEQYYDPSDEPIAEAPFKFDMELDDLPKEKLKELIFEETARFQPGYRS
Sequence of PRKD3 (human) (O94806 whole entry, looked up): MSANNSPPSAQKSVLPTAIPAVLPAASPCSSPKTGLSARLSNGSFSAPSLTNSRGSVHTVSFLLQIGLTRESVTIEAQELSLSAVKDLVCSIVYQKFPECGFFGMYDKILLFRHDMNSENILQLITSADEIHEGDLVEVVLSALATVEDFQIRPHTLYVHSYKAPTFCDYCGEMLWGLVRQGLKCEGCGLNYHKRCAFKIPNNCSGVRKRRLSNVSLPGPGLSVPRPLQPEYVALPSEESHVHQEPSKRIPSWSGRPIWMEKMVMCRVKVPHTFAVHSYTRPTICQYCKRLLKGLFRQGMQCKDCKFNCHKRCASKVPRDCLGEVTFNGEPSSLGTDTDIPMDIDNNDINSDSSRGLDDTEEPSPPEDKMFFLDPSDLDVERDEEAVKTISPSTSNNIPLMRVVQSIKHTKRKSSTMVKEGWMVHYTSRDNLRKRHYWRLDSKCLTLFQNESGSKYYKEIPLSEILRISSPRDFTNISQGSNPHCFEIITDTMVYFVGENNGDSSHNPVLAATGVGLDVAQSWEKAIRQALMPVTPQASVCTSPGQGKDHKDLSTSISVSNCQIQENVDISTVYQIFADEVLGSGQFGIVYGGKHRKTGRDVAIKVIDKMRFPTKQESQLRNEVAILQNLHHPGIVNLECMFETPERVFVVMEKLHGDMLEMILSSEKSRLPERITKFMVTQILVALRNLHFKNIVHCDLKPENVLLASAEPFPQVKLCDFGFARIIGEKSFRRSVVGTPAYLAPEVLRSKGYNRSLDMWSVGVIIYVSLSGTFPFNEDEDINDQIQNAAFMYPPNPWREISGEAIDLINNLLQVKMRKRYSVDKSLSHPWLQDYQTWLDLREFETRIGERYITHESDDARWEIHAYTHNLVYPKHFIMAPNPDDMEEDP
Sequence of MAP3K7 TAB1 (human) (O43318 whole entry, looked up): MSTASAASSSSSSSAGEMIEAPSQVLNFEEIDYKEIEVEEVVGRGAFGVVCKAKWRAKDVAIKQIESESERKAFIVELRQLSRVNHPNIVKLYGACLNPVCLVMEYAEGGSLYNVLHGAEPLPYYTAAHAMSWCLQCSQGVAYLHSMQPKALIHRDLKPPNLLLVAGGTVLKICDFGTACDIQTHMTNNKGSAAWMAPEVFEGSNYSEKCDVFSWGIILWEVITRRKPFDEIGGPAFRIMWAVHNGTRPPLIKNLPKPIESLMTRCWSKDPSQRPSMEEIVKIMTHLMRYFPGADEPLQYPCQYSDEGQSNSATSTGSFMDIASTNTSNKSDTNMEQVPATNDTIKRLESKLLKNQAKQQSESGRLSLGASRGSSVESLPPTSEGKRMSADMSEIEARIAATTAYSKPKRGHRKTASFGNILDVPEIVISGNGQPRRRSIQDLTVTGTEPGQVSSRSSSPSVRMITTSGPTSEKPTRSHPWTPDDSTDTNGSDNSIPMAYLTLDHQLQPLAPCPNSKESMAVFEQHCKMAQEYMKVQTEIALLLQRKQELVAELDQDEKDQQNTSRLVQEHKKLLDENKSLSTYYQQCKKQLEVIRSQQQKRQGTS
Sequence of MAP3K7 TAB1 (human) (Q15750 whole entry, looked up): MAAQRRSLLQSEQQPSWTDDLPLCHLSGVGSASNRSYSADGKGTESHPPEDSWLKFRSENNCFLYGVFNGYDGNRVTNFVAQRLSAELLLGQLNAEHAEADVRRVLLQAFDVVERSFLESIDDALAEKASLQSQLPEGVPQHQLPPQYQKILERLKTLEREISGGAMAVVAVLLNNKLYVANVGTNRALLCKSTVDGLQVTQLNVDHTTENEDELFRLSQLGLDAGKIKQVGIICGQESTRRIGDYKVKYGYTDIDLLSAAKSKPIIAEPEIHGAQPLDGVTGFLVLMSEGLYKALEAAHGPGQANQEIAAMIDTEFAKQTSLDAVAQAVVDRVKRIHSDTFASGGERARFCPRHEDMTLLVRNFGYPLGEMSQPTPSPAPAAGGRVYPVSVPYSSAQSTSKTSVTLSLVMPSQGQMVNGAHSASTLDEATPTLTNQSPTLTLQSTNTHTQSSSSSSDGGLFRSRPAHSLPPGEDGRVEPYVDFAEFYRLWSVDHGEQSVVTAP
Sequence of STK4 (human) (Q13043 whole entry, looked up): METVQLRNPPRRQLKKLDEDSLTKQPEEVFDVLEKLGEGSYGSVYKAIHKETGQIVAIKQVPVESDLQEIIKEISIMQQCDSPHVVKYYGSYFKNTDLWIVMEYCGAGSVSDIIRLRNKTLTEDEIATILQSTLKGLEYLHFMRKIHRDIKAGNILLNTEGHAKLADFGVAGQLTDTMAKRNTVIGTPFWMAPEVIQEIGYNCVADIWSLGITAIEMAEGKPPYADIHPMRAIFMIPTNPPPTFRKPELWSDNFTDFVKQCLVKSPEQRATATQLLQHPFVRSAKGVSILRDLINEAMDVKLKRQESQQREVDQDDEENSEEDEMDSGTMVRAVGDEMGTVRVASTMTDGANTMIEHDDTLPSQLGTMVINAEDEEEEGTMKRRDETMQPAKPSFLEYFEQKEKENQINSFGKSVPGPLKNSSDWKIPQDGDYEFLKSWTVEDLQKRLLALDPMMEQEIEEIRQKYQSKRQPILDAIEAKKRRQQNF
Sequence of CLK3 (human) (P49761 whole entry, looked up): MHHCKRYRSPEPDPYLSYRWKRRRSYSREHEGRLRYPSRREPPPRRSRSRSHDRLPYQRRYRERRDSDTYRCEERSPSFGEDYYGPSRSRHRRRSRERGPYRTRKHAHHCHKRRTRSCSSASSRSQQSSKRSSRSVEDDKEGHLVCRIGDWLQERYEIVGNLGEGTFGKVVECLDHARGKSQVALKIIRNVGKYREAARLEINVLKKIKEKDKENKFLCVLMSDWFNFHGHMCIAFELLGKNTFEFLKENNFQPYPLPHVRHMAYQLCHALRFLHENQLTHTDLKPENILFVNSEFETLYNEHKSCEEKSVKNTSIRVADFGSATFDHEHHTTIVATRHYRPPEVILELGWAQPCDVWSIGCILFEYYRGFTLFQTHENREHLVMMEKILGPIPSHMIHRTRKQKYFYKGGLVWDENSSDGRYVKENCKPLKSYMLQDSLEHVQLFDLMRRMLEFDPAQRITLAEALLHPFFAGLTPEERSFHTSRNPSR
Sequence of EPHB3 (human) (P54753 whole entry, looked up): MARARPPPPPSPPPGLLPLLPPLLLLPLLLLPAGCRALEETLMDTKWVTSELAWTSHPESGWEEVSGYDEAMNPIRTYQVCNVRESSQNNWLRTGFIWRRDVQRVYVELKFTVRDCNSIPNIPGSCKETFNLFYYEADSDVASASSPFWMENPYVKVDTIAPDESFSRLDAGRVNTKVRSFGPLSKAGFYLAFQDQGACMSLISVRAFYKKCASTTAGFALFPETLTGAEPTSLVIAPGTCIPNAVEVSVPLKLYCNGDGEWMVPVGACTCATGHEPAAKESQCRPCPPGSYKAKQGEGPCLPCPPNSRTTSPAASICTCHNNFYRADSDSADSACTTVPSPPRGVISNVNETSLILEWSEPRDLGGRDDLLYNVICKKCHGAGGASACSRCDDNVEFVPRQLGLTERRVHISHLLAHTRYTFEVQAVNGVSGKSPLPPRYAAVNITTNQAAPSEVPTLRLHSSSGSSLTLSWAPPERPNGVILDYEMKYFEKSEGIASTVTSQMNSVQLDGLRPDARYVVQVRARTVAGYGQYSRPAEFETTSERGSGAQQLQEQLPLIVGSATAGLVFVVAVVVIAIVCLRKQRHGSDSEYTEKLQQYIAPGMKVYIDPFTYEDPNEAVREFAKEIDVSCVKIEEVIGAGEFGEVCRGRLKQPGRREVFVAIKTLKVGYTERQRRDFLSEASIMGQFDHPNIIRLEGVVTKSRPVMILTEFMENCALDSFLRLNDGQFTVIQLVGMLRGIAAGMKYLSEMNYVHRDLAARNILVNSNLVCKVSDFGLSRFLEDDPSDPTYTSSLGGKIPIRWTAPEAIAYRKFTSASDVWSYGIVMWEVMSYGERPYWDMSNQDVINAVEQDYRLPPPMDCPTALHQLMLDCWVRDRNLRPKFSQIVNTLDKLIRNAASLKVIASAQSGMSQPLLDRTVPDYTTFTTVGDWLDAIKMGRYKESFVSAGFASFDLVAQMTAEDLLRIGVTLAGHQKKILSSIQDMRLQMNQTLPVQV
Sequence of CSNK2A2 (human) (P19784 whole entry, looked up): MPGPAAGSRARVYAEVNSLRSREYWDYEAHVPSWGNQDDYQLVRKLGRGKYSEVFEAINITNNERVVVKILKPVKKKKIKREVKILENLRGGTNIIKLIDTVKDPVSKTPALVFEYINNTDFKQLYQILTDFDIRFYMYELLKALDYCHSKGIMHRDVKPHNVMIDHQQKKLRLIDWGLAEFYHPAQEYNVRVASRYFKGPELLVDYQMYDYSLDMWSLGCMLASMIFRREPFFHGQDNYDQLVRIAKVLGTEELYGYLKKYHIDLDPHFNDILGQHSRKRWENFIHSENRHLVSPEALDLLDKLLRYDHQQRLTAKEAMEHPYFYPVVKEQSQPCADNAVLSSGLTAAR

Compound: O=C1Cc2c([nH]c3ccc(Br)cc23)-c2ccccc2N1
residual activity (ABL1 (human)): 82.6%
residual activity (ACVRL1 (human)): 99%
residual activity (BRSK1 (human)): 60.5%
residual activity (BRSK2 (human)): 62.7%
residual activity (CAMKK1 (human)): 99.8%
residual activity (CDK2 CCNA2 (human)): 37.4%
residual activity (CDK4 CCND3 (human)): 89%
residual activity (CDK9 CCNK (human)): 31.5%
residual activity (CHEK2 (human)): 59%
residual activity (CLK3 (human)): 99.3%
residual activity (CSF1R (human)): 92.6%
residual activity (CSK (human)): 88%
residual activity (CSNK1D (human)): 104%
residual activity (CSNK1E (human)): 103%
residual activity (CSNK2A2 (human)): 74.6%
residual activity (DCLK2 (human)): 94.6%
residual activity (EPHB3 (human)): 92.3%
residual activity (ERBB4 (human)): 101%
residual activity (GSG2 (human)): 89.1%
residual activity (ITK (human)): 102%
residual activity (KIT (human)): 90.3%
residual activity (MAP3K2 (human)): 94.2%
residual activity (MAP3K7 TAB1 (human)): 84.2%
residual activity (MAP4K2 (human)): 20.1%
residual activity (MAPK1 (human)): 90.5%
residual activity (MARK3 (human)): 76.8%
residual activity (MARK4 (human)): 60.2%
residual activity (MST1R (human)): 93.6%
residual activity (PIM3 (human)): 84.6%
residual activity (PRKD3 (human)): 95.5%
residual activity (PTK2B (human)): 102%
residual activity (RAF1 (human)): 91.5%
residual activity (ROCK2 (human)): 84.6%
residual activity (ROS1 (human)): 83.6%
residual activity (STK39 (human)): 90.1%
residual activity (STK4 (human)): 81.8%
residual activity (TGFBR1 (human)): 97.7%
residual activity (TSSK1B (human)): 80.4%
residual activity (TTK (human)): 80.9%
residual activity (TYRO3 (human)): 97.7%
residual activity (ZAP70 (human)): 93.6%

Compound: O=C1NC(=O)C(c2c[nH]c3ccccc23)=C1c1c[nH]c2ccccc12
residual activity (ABL1 (human)): 89.1%
residual activity (ACVRL1 (human)): 96.5%
residual activity (BRSK1 (human)): 84.4%
residual activity (BRSK2 (human)): 86%
residual activity (CAMKK1 (human)): 114%
residual activity (CDK2 CCNA2 (human)): 81.9%
residual activity (CDK4 CCND3 (human)): 89.8%
residual activity (CDK9 CCNK (human)): 80%
residual activity (CHEK2 (human)): 124%
residual activity (CLK3 (human)): 102%
residual activity (CSF1R (human)): 93.7%
residual activity (CSK (human)): 103%
residual activity (CSNK1D (human)): 95.7%
residual activity (CSNK1E (human)): 92.4%
residual activity (CSNK2A2 (human)): 92%
residual activity (DCLK2 (human)): 89.3%
residual activity (EPHB3 (human)): 94.3%
residual activity (ERBB4 (human)): 110%
residual activity (GSG2 (human)): 84.7%
residual activity (ITK (human)): 102%
residual activity (KIT (human)): 68.5%
residual activity (MAP3K2 (human)): 107%
residual activity (MAP3K7 TAB1 (human)): 97%
residual activity (MAP4K2 (human)): 84.9%
residual activity (MAPK1 (human)): 90.5%
residual activity (MARK3 (human)): 98.5%
residual activity (MARK4 (human)): 95.3%
residual activity (MST1R (human)): 93.1%
residual activity (PIM3 (human)): 32.7%
residual activity (PRKD3 (human)): 88.4%
residual activity (PTK2B (human)): 95.6%
residual activity (RAF1 (human)): 122%
residual activity (ROCK2 (human)): 89.2%
residual activity (ROS1 (human)): 87%
residual activity (STK39 (human)): 93.6%
residual activity (STK4 (human)): 61.8%
residual activity (TGFBR1 (human)): 96.6%
residual activity (TSSK1B (human)): 106%
residual activity (TTK (human)): 106%
residual activity (TYRO3 (human)): 101%

residual activity (ABL1 (human)): 43.1%
residual activity (ACVRL1 (human)): 107%
residual activity (BRSK1 (human)): 43.5%
residual activity (BRSK2 (human)): 43.4%
residual activity (CAMKK1 (human)): 72.7%
residual activity (CDK2 CCNA2 (human)): 22.3%
residual activity (CDK4 CCND3 (human)): 86.2%
residual activity (CDK9 CCNK (human)): 64.3%
residual activity (CHEK2 (human)): 75.8%
residual activity (CLK3 (human)): 75.1%
residual activity (CSF1R (human)): 84%
residual activity (CSK (human)): 75.5%
residual activity (CSNK1D (human)): 92.3%
residual activity (CSNK1E (human)): 55.8%
residual activity (DCLK2 (human)): 90.2%
residual activity (EGFR (human)): 91.1%
residual activity (EPHB3 (human)): 94.2%
residual activity (ERBB4 (human)): 101%
residual activity (GSG2 (human)): 85.5%
residual activity (ITK (human)): 76.8%
residual activity (KIT (human)): 62.3%
residual activity (MAP3K2 (human)): 93.1%
residual activity (MAP3K7 TAB1 (human)): 97.4%
residual activity (MAP4K2 (human)): 44%
residual activity (MAPK1 (human)): 87.9%
residual activity (MARK3 (human)): 85.4%
residual activity (MARK4 (human)): 77.6%
residual activity (MST1R (human)): 92.8%
residual activity (PIM3 (human)): 54.2%
residual activity (PRKD3 (human)): 84.9%
residual activity (PTK2B (human)): 85.9%
residual activity (RAF1 (human)): 100%
residual activity (ROCK2 (human)): 91.7%
residual activity (ROS1 (human)): 105%
residual activity (STK39 (human)): 105%
residual activity (STK4 (human)): 54.2%
residual activity (TGFBR1 (human)): 101%
residual activity (TSSK1B (human)): 92.4%
residual activity (TTK (human)): 93.9%
residual activity (TYRO3 (human)): 69.8%
residual activity (ZAP70 (human)): 102%
Compound: CC(=O)O/N=C1\C(=C2\C(=O)Nc3cc(Br)ccc32)Nc2ccccc21

Compound: COc1ccc(CNC(=O)Nc2ncc([N+](=O)[O-])s2)cc1
residual activity (ABL1 (human)): 96.8%
residual activity (ACVRL1 (human)): 106%
residual activity (BRSK1 (human)): 102%
residual activity (BRSK2 (human)): 93.1%
residual activity (CAMKK1 (human)): 119%
residual activity (CDK2 CCNA2 (human)): 93.3%
residual activity (CDK4 CCND3 (human)): 94.4%
residual activity (CDK9 CCNK (human)): 82.8%
residual activity (CHEK2 (human)): 99.2%
residual activity (CLK3 (human)): 93%
residual activity (CSF1R (human)): 99.2%
residual activity (CSK (human)): 102%
residual activity (CSNK1E (human)): 102%
residual activity (CSNK2A2 (human)): 92.9%
residual activity (DCLK2 (human)): 99.2%
residual activity (EPHB3 (human)): 101%
residual activity (ERBB4 (human)): 95.2%
residual activity (GSG2 (human)): 90%
residual activity (ITK (human)): 89.5%
residual activity (KIT (human)): 103%
residual activity (MAP3K2 (human)): 94.1%
residual activity (MAP3K7 TAB1 (human)): 99.3%
residual activity (MAP4K2 (human)): 113%
residual activity (MAPK1 (human)): 104%
residual activity (MARK3 (human)): 105%
residual activity (MARK4 (human)): 92.2%
residual activity (MST1R (human)): 98.4%
residual activity (PIM3 (human)): 108%
residual activity (PRKD3 (human)): 93.4%
residual activity (PTK2B (human)): 83.1%
residual activity (RAF1 (human)): 94%
residual activity (ROCK2 (human)): 99.8%
residual activity (ROS1 (human)): 100%
residual activity (STK39 (human)): 96.4%
residual activity (STK4 (human)): 99.8%
residual activity (TGFBR1 (human)): 95.8%
residual activity (TSSK1B (human)): 106%
residual activity (TTK (human)): 98.9%
residual activity (TYRO3 (human)): 100%
residual activity (ZAP70 (human)): 102%

Compound: Cn1cnc2cc3c(Nc4cccc(Br)c4)ncnc3cc21
residual activity (ABL1 (human)): 32.6%
residual activity (ACVRL1 (human)): 102%
residual activity (BRSK1 (human)): 81.6%
residual activity (BRSK2 (human)): 88.6%
residual activity (CAMKK1 (human)): 107%
residual activity (CDK2 CCNA2 (human)): 90.1%
residual activity (CDK4 CCND3 (human)): 95.9%
residual activity (CDK9 CCNK (human)): 100%
residual activity (CHEK2 (human)): 101%
residual activity (CLK3 (human)): 100%
residual activity (CSF1R (human)): 94.4%
residual activity (CSK (human)): 88.1%
residual activity (CSNK1D (human)): 93.9%
residual activity (CSNK1E (human)): 90.3%
residual activity (CSNK2A2 (human)): 91.7%
residual activity (DCLK2 (human)): 92.9%
residual activity (EPHB3 (human)): 93.8%
residual activity (ERBB4 (human)): 75.5%
residual activity (GSG2 (human)): 89.4%
residual activity (ITK (human)): 102%
residual activity (KIT (human)): 78.6%
residual activity (MAP3K2 (human)): 97.6%
residual activity (MAP3K7 TAB1 (human)): 98.6%
residual activity (MAP4K2 (human)): 90.4%
residual activity (MAPK1 (human)): 94.2%
residual activity (MARK3 (human)): 104%
residual activity (MARK4 (human)): 105%
residual activity (MST1R (human)): 96.5%
residual activity (PIM3 (human)): 104%
residual activity (PRKD3 (human)): 93.1%
residual activity (PTK2B (human)): 92.7%
residual activity (RAF1 (human)): 98.6%
residual activity (ROCK2 (human)): 88.5%
residual activity (ROS1 (human)): 99.9%
residual activity (STK39 (human)): 111%
residual activity (STK4 (human)): 94.2%
residual activity (TGFBR1 (human)): 97.6%
residual activity (TSSK1B (human)): 104%
residual activity (TTK (human)): 95.7%
residual activity (TYRO3 (human)): 94.5%
residual activity (ZAP70 (human)): 110%
